Data on 2 molecules can be found in patent publication US20030027720A1, “Synergistic fungicidal composition comprising a compound analogous to strobilurin” (priority 1995, published 2003).

Assay [1] relates to Alternaria brassicae. Briefly: In vivo test, alternaria disease of radish, preventive treatment 24 hours before infection (Tammes isobole). The conditions noted are these: radish seedlings, spray 24 h before infection, reading 6 days after infection. The method, then:
In vivo test of the combination of ICIA5504 with iprodione with respect to alternaria disease of radish (Alternaria brassicae) by preventive treatment 24 hours before infection. A suspension comprising the compounds A and B in a liquid mixture composed of a surface-active agent (oleate of polyoxyethylenated derivative of sorbitan) and water is prepared. The component B is iprodione; the A/B ratio is 0.25, 0.5, 1, 2 or 4. Radish seedlings (variety Pernot), are grown in small pots. When these seedlings are 10-12 days old (cotyledon, 1st leaf stage), they are treated by spraying with the above suspension. […] After 24 hours, each seedling is infected by spraying with an aqueous suspension of spores of Alternaria brassica, which suspension is obtained from an in vitro culture of the fungus. These spores are suspended at a concentration of 40,000 units per cm^3 of inoculum. Infection is carried out by spraying the inoculum at the top surface of the leaves. The infected seedlings are then incubated for six days at 18-20° C. at 90-100% relative humidity under natural light. Reading is carried out 6 days after infection, in comparison with the control seedlings. […]

Assay [2] has as its system Pyrenophora teres. Briefly: In vivo test, helminthosporium disease of barley, preventive treatment 7 days before infection (Colby). The conditions noted are these: graded 10 days after infection. The method, then: In vivo test of the combination of ICIA5504 with iprodione with respect to helminthosporium disease of barley by preventive treatment 7 days before infection.
The fungicides are used at the following doses:
The young barley plants (var. Express) which are 12 days old (first leaf developed stage) are treated with the experimental fungicides at the doses indicated above in a slurry volume of 250 l/ha (3 repeats/dose). Seven days after the treatment, the young barley plants are infected with a suspension of Pyrenophora teres spores (10,000 spores/ml). The young plants are incubated for 48 hours at 20° C., 100% relative humidity (RH). Next, the plants are transferred to a greenhouse at 20° C., 70-80% RH under natural light. The grading of the disease is carried out ten days after infection by estimating the leaf surface area contaminated on the first leaf (10 young plants/pot).
By comparing with the control (non-treated-contaminated) a percentage efficacy is calculated. The synergy is then quantified by using the Colby model.

Turning to `CO/C=C(/C(=O)OC)c1ccccc1Oc1cc(Oc2ccccc2C#N)ncn1` [ICIA5504, methyl (E)-2-{2-[6-(2-cyanophenoxy)pyrimidin-4-yloxy]phenyl}-3-methoxyacrylate], the “dose of A alone necessary for the destruction of 80% of the parasite” value in assay [1] is 115 ppm (mg/l). In addition, the Observed efficacy in assay [2] (ICIA5504 1.5 g/ha alone) came out at 0%; in assay [2] (ICIA5504 3.1 g/ha alone), 17.54%; in assay [2] (ICIA5504 6.2 g/ha alone) it was 34.21%; in assay [2] (ICIA5504 12.5 g/ha alone), 59.21%; in assay [2] (ICIA5504 25 g/ha alone), 76.75%; in assay [2] (ICIA5504 50 g/ha alone) it was 83.86%. Besides, the Observed efficacy in assay [2] (ICIA5504 100 g/ha alone) is listed as 81.67%; in assay [2] (ICIA5504 200 g/ha alone), 92.72%.
On to `CC(C)NC(=O)N1CC(=O)N(c2cc(Cl)cc(Cl)c2)C1=O` [iprodione], for which the Observed efficacy is given as 15.79% in assay [2] (iprodione 12.5 g/ha alone); 7.02% in assay [2] (iprodione 25 g/ha alone); 37.72% in assay [2] (iprodione 50 g/ha alone); 35.09% in assay [2] (iprodione 100 g/ha alone); 47.37% in assay [2] (iprodione 200 g/ha alone); 50.88% in assay [2] (iprodione 400 g/ha alone). Besides, the Observed efficacy in assay [2] (iprodione 800 g/ha alone) turned out to be 59.65%.
